Data taken from PubChem BioAssay AID206 (DTP/NCI, 2004).
Where “and” joins values, the source holds several entries; their conditions need not be identical. Equal entries are not always repeated. Inconclusive results are not listed.

System: nude mice, HT29 intrarenal xenograft, tumor weight T/C
Test: NCI In Vivo Anticancer Drug Screen. Data for tumor model HT29;CX-1 Human Adenocarcinoma (MER+) (intrarenal inoculation) in NU/NU Swiss (nude) mice
Conditions: endpoint: mean tumor weight change, higher = larger tumour
Procedure, shortened: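 Readout: treated/vehicle-control ratio of the measured endpoint (tumor size or survival) in transplanted-tumor mice.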

[1] = dose: 100.0 mg/kg/injection, schedule: Q04DX004 (sc), vehicle: saline with Tween-80
[2] = dose: 200.0 mg/kg/injection, schedule: Q04DX004 (sc), vehicle: saline with Tween-80
[3] = dose: 400.0 mg/kg/injection, schedule: Q04DX004 (sc), vehicle: saline with Tween-80
[4] = dose: 600.0 mg/kg/injection, schedule: Q04DX004 (sc), vehicle: saline with Tween-80
[5] = dose: 2400.0 mg/kg/injection, schedule: Q04DX004 (sc), vehicle: saline with Tween-80

## CCC1OCC(C(Cl)CCl)O1 (stereo not drawn)
dose: 37.5 mg/kg/injection, schedule: Q01DX014 (sc), vehicle: Klucel (hydroxypropylcellulose) (HPC)
  T/C: 100 % of control
dose: 37.5 mg/kg/injection, schedule: Q04DX014 (sc), vehicle: Klucel (hydroxypropylcellulose) (HPC)
  T/C: 58 % of control
dose: 75.0 mg/kg/injection, schedule: Q01DX014 (sc), vehicle: Klucel (hydroxypropylcellulose) (HPC)
  T/C: 193 % of control
dose: 75.0 mg/kg/injection, schedule: Q04DX014 (sc), vehicle: Klucel (hydroxypropylcellulose) (HPC)
  T/C: 30 % of control
dose: 150.0 mg/kg/injection, schedule: Q01DX014 (sc), vehicle: Klucel (hydroxypropylcellulose) (HPC)
  T/C: 86 % of control
dose: 150.0 mg/kg/injection, schedule: Q04DX014 (sc), vehicle: Klucel (hydroxypropylcellulose) (HPC)
  T/C: 1 % of control
dose: 300.0 mg/kg/injection, schedule: Q01DX014 (sc), vehicle: Klucel (hydroxypropylcellulose) (HPC)
  T/C: 122 % of control
dose: 300.0 mg/kg/injection, schedule: Q04DX004 (sc), vehicle: other
  T/C: 83 % of control
dose: 300.0 mg/kg/injection, schedule: Q04DX014 (sc), vehicle: Klucel (hydroxypropylcellulose) (HPC)
  T/C: -30 % of control
dose: 600.0 mg/kg/injection, schedule: Q01DX014 (sc), vehicle: Klucel (hydroxypropylcellulose) (HPC)
  T/C: 25 % of control
dose: 600.0 mg/kg/injection, schedule: Q04DX004 (sc), vehicle: other
  T/C: 21 % of control
dose: 600.0 mg/kg/injection, schedule: Q04DX014 (sc), vehicle: Klucel (hydroxypropylcellulose) (HPC)
  T/C: -99 % of control

## O=C(O)CCCCCCCC(=O)O
dose: 600.0 mg/kg/injection, schedule: Q04DX004 (sc), vehicle: distilled water + Tween-80
  T/C: 67 % of control
dose: 2400.0 mg/kg/injection, schedule: Q04DX004 (sc), vehicle: distilled water + Tween-80
  T/C: 113 % of control

## CN1C(=O)NC(c2ccc(Cl)cc2)(c2ccc(Cl)cc2)C1=O
dose: 50.0 mg/kg/injection, schedule: Q01DX010 (sc), vehicle: saline with Tween-80
  T/C: 97 % of control
dose: 100.0 mg/kg/injection, schedule: Q01DX010 (sc), vehicle: saline with Tween-80
  T/C: 109 % of control
dose: 400.0 mg/kg/injection, schedule: Q01DX010 (sc), vehicle: saline with Tween-80
  T/C: 43 % of control

## C=CCNc1ccc(C)cc1
dose: 50.0 mg/kg/injection, schedule: Q01DX010 (sc), vehicle: Klucel (hydroxypropylcellulose) (HPC)
  T/C: 105 % of control
dose: 200.0 mg/kg/injection, schedule: Q01DX010 (sc), vehicle: Klucel (hydroxypropylcellulose) (HPC)
  T/C: 86 % of control

## CC(=O)OCC(OC(C)=O)C(Cl)CCl (stereo not drawn)
dose: 31.25 mg/kg/injection, schedule: Q04DX004 (ip), vehicle: saline
  T/C: 114 % of control
dose: 62.5 mg/kg/injection, schedule: Q04DX004 (ip), vehicle: saline
  T/C: 121 % of control
dose: 125.0 mg/kg/injection, schedule: Q04DX004 (ip), vehicle: saline
  T/C: 84 % of control
dose: 250.0 mg/kg/injection, schedule: Q04DX004 (ip), vehicle: saline
  T/C: 100 % of control
dose: 500.0 mg/kg/injection, schedule: Q04DX004 (ip), vehicle: saline
  T/C: 115 % of control

## Cn1cnc([N+](=O)[O-])c1[Se]c1nc(N)nc2nc[nH]c12
dose: 50.0 mg/kg/injection, schedule: Q01DX010 (sc), vehicle: water
  T/C: 100 % of control

## COc1cc2c[n+](C)c3c4cc5c(cc4ccc3c2cc1OC)OCO5
dose: 50.0 mg/kg/injection, schedule: Q04DX004 (sc), vehicle: saline with Tween-80
  T/C: 67 % of control
[1]
  T/C: 48 % of control
[2]
  T/C: 79 % of control
[3]
  T/C: 60 % of control

## O=c1cc(-c2ccccc2)[nH]c2c1CCCC2
[1]
  T/C: 82 % of control
[2]
  T/C: 70 % of control
[3]
  T/C: 67 % of control
[4]
  T/C: 37 % of control
dose: 800.0 mg/kg/injection, schedule: Q04DX004 (sc), vehicle: saline with Tween-80
  T/C: 68 % of control
dose: 1200.0 mg/kg/injection, schedule: Q04DX004 (sc), vehicle: saline with Tween-80
  T/C: 58 % of control
[5]
  T/C: 101 % of control

## O=NN(CCCl)C(=O)NCCCl
dose: 2.0 mg/kg/injection, schedule: Q01DX010 (sc), vehicle: saline
  T/C: 80 % of control
dose: 4.0 mg/kg/injection, schedule: Q01DX010 (sc), vehicle: saline
  T/C: 66 % of control
dose: 8.0 mg/kg/injection, schedule: Q01DX010 (sc), vehicle: saline
  T/C: 61 % of control and 70 % of control
dose: 15.0 mg/kg/injection, schedule: Q04DX004 (sc), vehicle: suspension in saline
  T/C: 100 % of control
dose: 30.0 mg/kg/injection, schedule: Q04DX004 (sc), vehicle: suspension in saline
  T/C: 69 % of control
dose: 60.0 mg/kg/injection, schedule: Q04DX004 (sc), vehicle: suspension in saline
  T/C: 41 % of control

## CO[C@@]12[C@H](COC(N)=O)C3=C(C(=O)C(C)=C(N)C3=O)N1C[C@@H]1N[C@@H]12
dose: 0.63 mg/kg/injection, schedule: Q04DX004 (sc), vehicle: saline
  T/C: 71 % of control
dose: 1.5 mg/kg/injection, schedule: Q04DX004 (sc), vehicle: saline
  T/C: 10 % of control
dose: 2.0 mg/kg/injection, schedule: Q04DX004 (ip), vehicle: saline
  T/C: 29 % of control
dose: 3.0 mg/kg/injection, schedule: Q04DX003 (sc), vehicle: saline
  T/C: 13 % of control
dose: 3.0 mg/kg/injection, schedule: Q04DX004 (ip), vehicle: saline
  T/C: 8 % of control
dose: 3.0 mg/kg/injection, schedule: Q04DX004 (sc), vehicle: saline
  T/C: -59 % of control
dose: 4.5 mg/kg/injection, schedule: Q04DX004 (ip), vehicle: saline
  T/C: -82 % of control
dose: 6.0 mg/kg/injection, schedule: Q04DX003 (sc), vehicle: saline
  T/C: -37 % of control

## COCC1OC2OC3C(COC)OC(OC4C(COC)OC(OC5C(COC)OC(OC6C(COC)OC(OC7C(COC)OC(OC8C(COC)OC(OC1C(O)C2O)C(O)C8O)C(O)C7O)C(O)C6O)C(O)C5O)C(O)C4O)C(O)C3O (stereo not drawn) (tested in a mixture with another compound)
dose: 100.0 mg/kg/injection, schedule: Q04DX004 (sc), vehicle: Klucel (hydroxypropylcellulose) (HPC)
  T/C: 116 % of control
dose: 200.0 mg/kg/injection, schedule: Q04DX004 (sc), vehicle: Klucel (hydroxypropylcellulose) (HPC)
  T/C: 67 % of control

## CC1=C(/C=C/C(C)=C/C=C/C(C)=C/C=O)C(C)(C)CCC1
dose: 150.0 mg/kg/injection, schedule: Q04DX004 (sc), vehicle: saline with Tween-80
  T/C: 61 % of control
dose: 300.0 mg/kg/injection, schedule: Q04DX004 (sc), vehicle: saline with Tween-80
  T/C: 62 % of control
[4]
  T/C: 67 % of control

## CCN(CC)CC[n+]1ccc2c(C)c3[nH]c4ccc(O)cc4c3c(C)c2c1
dose: 12.5 mg/kg/injection, schedule: Q04DX004 (sc), vehicle: suspension in saline
  T/C: 56 % of control
dose: 25.0 mg/kg/injection, schedule: Q04DX004 (sc), vehicle: suspension in saline
  T/C: 24 % of control

## CN(C)CC(Cl)CCl (stereo not drawn)
dose: 75.0 mg/kg/injection, schedule: Q04DX004 (sc), vehicle: saline
  T/C: 101 % of control
dose: 150.0 mg/kg/injection, schedule: Q04DX004 (sc), vehicle: saline
  T/C: 117 % of control
dose: 300.0 mg/kg/injection, schedule: Q04DX004 (sc), vehicle: saline
  T/C: 50 % of control

## CC[C@](O)(C(=O)O)c1cc2n(c(=O)c1CO)Cc1cc3ccccc3nc1-2
dose: 31.25 mg/kg/injection, schedule: Q04DX004 (sc), vehicle: saline
  T/C: 7 % of control
dose: 62.5 mg/kg/injection, schedule: Q04DX004 (sc), vehicle: saline
  T/C: -10 % of control
dose: 125.0 mg/kg/injection, schedule: Q04DX004 (sc), vehicle: saline
  T/C: -46 % of control

## Clc1ccc2nnnn2n1
[1]
  T/C: 114 % of control
[2]
  T/C: 45 % of control

## COc1cccc2c1C(=O)c1c(O)c3c(c(O)c1C2=O)C[C@@](O)(C(=O)CO)C[C@@H]3OC1CC(N(C)C)C(O)C(C)O1 (stereo partly drawn)
dose: 1.0 mg/kg/injection, schedule: Q01DX010 (sc), vehicle: water
  T/C: 19 % of control
dose: 2.0 mg/kg/injection, schedule: Q01DX010 (sc), vehicle: water
  T/C: 94 % of control
dose: 4.0 mg/kg/injection, schedule: Q01DX010 (sc), vehicle: water
  T/C: 29 % of control

## O=S(=O)(O)O
dose: 75.0 mg/kg/injection, schedule: Q04DX004 (sc), vehicle: Klucel (hydroxypropylcellulose) (HPC)
  T/C: 86 % of control
dose: 150.0 mg/kg/injection, schedule: Q04DX004 (sc), vehicle: Klucel (hydroxypropylcellulose) (HPC)
  T/C: 116 % of control
dose: 300.0 mg/kg/injection, schedule: Q04DX004 (sc), vehicle: Klucel (hydroxypropylcellulose) (HPC)
  T/C: 65 % of control

## Cc1cc(O)c(N=Nc2ccc(C(=O)O)cc2)cc1C
[4]
  T/C: 107 % of control
[5]
  T/C: 154 % of control
